Target: T1, mPGES-1 (microsomal prostaglandin E synthase-1) (Homo sapiens, UniProt O14684)
T1 construct: gene PTGES
T1 sequence (O14684 1-152): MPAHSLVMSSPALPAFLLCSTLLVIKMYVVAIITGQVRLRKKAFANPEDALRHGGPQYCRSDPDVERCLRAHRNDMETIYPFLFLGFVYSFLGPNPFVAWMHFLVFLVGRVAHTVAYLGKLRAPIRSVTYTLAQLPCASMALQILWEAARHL
Assay: CETSA in U87 cell lysates (temperature- and dose-dependent), plus enzyme activity inhibition IC50
Type: cell-based

Work on O=C(/C=C/c1ccc(O)cc1)c1ccc(O)cc1O [ISL, isoliquiritigenin] yielded an IC50 of 17.4 µM.

From article PMC6704644 (Journal of Experimental & Clinical Cancer Research : CR, 2019)
